# Laboratory results published in publication PMC6646369, “A new bioavailable fenretinide formulation with antiproliferative, antimetabolic, and cytotoxic effects on solid tumors” (Cell Death & Disease, 2019).
# What was measured:
# Type in all cases: cell-based, human
# [1] = test system: LCSC6 lung cancer spheroid cells; test: Cell viability assay (CellTiter-Glo)
# Procedure: (§1) Briefly, lung and colorectal spheroids were dissociated mechanically or with TrypLE Express (Thermo Fisher Scientific) respectively and seeded 3 × 10^3 per well in 96-well plates (three replicates per experimental point) in serum-free medium, and incubated in a humidified atmosphere at 37 °C, 5% CO2. Cells were treated with the respective compounds and analysed after the appropriate time period as described in detail in Figure Legends. Luminescence was detected with a DTX880 multimode microplate reader (Beckman Coulter, Brea, CA, USA).
# [2] = test system: LCSC2 lung cancer spheroid cells; test: Cell viability assay (CellTiter-Glo); details: LCSC2, GT11 0,5µM plus SA 2µM plus Rapamycin 10nM, 48 hours
# Procedure: as §1, with “Cell viability upon treatment with NanoFEN, zVAD, NAC, 3-MA, Myriocin, PPMP, GT11, SA and Rapamycin was determined by CellTiter-Glo luminescent cell viability assay (Promega, Madison, WI, USA) according to the manufacturer’s directions. Briefly,” for “Briefly,”
# [3] = test system: CSC 7 colorectal spheroid cells; test: Cell viability assay (CellTiter-Glo)
# Procedure: as §1, with “Cell viability upon treatment with NanoFEN, zVAD, NAC, 3-MA, Myriocin, PPMP, GT11, SA and Rapamycin was determined by CellTiter-Glo luminescent cell viability assay (Promega, Madison, WI, USA) according to the manufacturer’s directions. Briefly,” for “Briefly,”
# [4] = test system: reactive oxygen species (ROS) in LCSC6; test: Measurement of intracellular ROS levels (CM-H2DCFDA, flow cytometer); details: LCSC6, NAC 2mM for 1h, then NanoFEN 4,9µM for 48 hours
# Procedure: An equal number of dissociated spheroid cells (2.5 × 10^5) were seeded in 6-well cell culture plates. Briefly, each cell line was incubated with NanoFEN at IC50 concentration and pre-treated for 1 h with the antioxidant N-Acetyl-Cysteine (NAC). At different times, the cells were washed twice with pre-warmed Phosphate Saline Buffer (PBS) and then incubated in the same buffer containing 5 μM CM-H2DCFDA with DMSO alone at 37 °C. The fluorescence intensity of DCF was measured at 527 nm emission wavelength after excitation at 492 nm at 1 h intervals for up to 48 h using a Flow Cytometer Accuri (Becton Dickinson). An increase in fluorescence intensity as arbitrary units indicated the net generation of intracellular ROS.
# [5] = test system: Aldefluor activity (ALDH) in LCSC6; test: Cytofluorimetric analysis of Aldefluor activity; details: LCSC6, representative analysis; NanoFEN at IC50 dose, Gemcytabine 25 µM; CTRL 38,6%
# Procedure: Values represent mean ± SD of three independent experiments. **P < 0.01; ***P < 0.001 from two-tailed t-test. d Schematic representation of stem-like factors (repressed in grey) emerged from RPPA analysis of lung CSCs treated as described in Fig. 4a. e Cytofluorimetric analysis of Aldefluor activity on LCSC6 treated with NanoFEN at IC50 dose and Gemcytabine 25 μM for 48 h. Values represent mean ± SD of three independent experiments. **P < 0.01; ***P < 0.001 from two-tailed t-test. f qRT-PCR analysis of indicated genes on whole tumor lysates derived from LCSC6 xenografts, untreated or treated with NanoFEN 30 mg/Kg/week and Cis 3 mg/Kg/week and Gem 60 mg/Kg/week (Cis + Gem). Values represent mean ± SD of three independent experiments. *P < 0.05; **P < 0.01 from two-tailed t-test. g Flow cytometry analysis of TOP-GFP.mc-transduced CSC7, untreated and treated with NanoFEN at the IC50 dose 0.2 μM and OXA 10 μM for 48 h. Values represent mean ± SD of three independent experiments. **P < 0.01 from two-tailed t-test. h Volume of xenografts derived from CSC10 transduced with TOP-GFP.mc untreated (black downward triangles) or treated with vehicle or treated NanoFEN 30 mg/Kg/week (green upward triangles) and OXA 5 mg/Kg/week plus 5FU 12.5 mg/Kg/week (red squares). […]
smiles,measurement,setting,value
CO[C@H]1C[C@@H]2CC[C@@H](C)[C@@](O)(O2)C(=O)C(=O)N2CCCC[C@H]2C(=O)O[C@H]([C@H](C)C[C@@H]2CC[C@@H](O)[C@H](OC)C2)CC(=O)[C@H](C)/C=C(\C)[C@@H](O)[C@@H](OC)C(=O)[C@H](C)C[C@H](C)/C=C/C=C/C=C/1C [rapamycin],effect on the toxic effects of the SA/GT11 combination (cell viability),"[1]; LCSC6, GT11 0.5 μM plus SA 2 μM plus Rapamycin 10 nM, 48 h",significantly potentiated
same,effect on the toxic effects of the SA/GT11 combination (cell viability),[2],significantly potentiated
same,effect on the toxic effects of the SA/GT11 combination (cell viability),"[3]; CSC7, GT11 0.5 μM plus SA 2 μM plus Rapamycin 10 nM, 48 h",significantly potentiated
"CC(=O)N[C@@H](CS)C(=O)O [NAC, N-Acetyl-L-Cysteine]",effect on NanoFEN-induced death (cell viability),"[1]; LCSC6 pretreated with NAC 2 mM for 1 h, then NanoFEN 4.9 μM, 48 h",partially rescued
same,effect on NanoFEN-induced death (cell viability),"[3]; CSC7 pretreated with NAC 2 mM for 1 h, then NanoFEN 0.2 μM, 48 h",partially rescued
same,ROS levels in NanoFEN-treated cells after pretreatment,[4],reduced
CCCCCCC(=O)CCCCCC/C=C/C[C@@H](O)[C@H](O)[C@@](N)(CO)C(=O)O [myriocin],effect on NanoFEN-induced death (cell viability),"[1]; LCSC6, Myriocin 1 μM plus NanoFEN 4.9 μM, 48 h",partially protected
same,effect on NanoFEN-induced death (cell viability),"[3]; CSC7, Myriocin 1 μM plus NanoFEN 0.2 μM, 48 h",partially protected
"Nc1ccn([C@@H]2O[C@H](CO)[C@@H](O)C2(F)F)c(=O)n1 [Gem, gemcitabine]",ALDH+,[5],"74,6%"
"COC(=O)C[C@H](NC(=O)[C@H](C)NC(=O)[C@@H](NC(=O)OCc1ccccc1)C(C)C)C(=O)CF (racemic) [zVAD-fmk, z-Val-Ala-DL-Asp-fluoromethylketone]",effect on NanoFEN-induced toxicity (cell viability),"[1]; LCSC6 pretreated with zVAD 40 μΜ, then NanoFEN 4.9 μM, 48 h",did not substantially inhibit
same,effect on NanoFEN-induced toxicity (cell viability),"[3]; CSC7 pretreated with zVAD 40 μΜ, then NanoFEN 0.2 μM, 48 h",did not substantially inhibit
"CCCCCCCCCCCCCCCC(=O)NC(CN1CCOCC1)C(O)c1ccccc1 (stereo not shown) [PPMP, 1-phenyl-2-palmitoylamino-3-morpholino-1-propanol]",effect on NanoFEN-induced death (cell viability),"[1]; LCSC6, PPMP 10 μM plus NanoFEN 4.9 μM, 48 h",unable to block
same,effect on NanoFEN-induced death (cell viability),"[3]; CSC7, PPMP 10 μM plus NanoFEN 0.2 μM, 48 h",unable to block
"CCCCCCCCCCCCCCC[C@@H](O)[C@@H](N)CO [SA, sphinganine]",cell viability,"[1]; LCSC6, 48 hours, SA 2, 4, 6 µM, GT11 0,5, 2, 5 µM",dose-dependent viability decrease
"Cn1cnc(N)c2ncnc1-2 [3-MA, 3-Methyladenine]",effect on NanoFEN-induced death (cell viability),"[1]; LCSC6, 3-MA 5 mM plus NanoFEN 4.9 μM, 24 h",able to counteract
same,effect on NanoFEN-induced death (cell viability),"[3]; CSC7, 3-MA 5 mM plus NanoFEN 0.2 μM, 24 h",able to counteract
